Source: US11643437B2, “Tandem repeat cancer-targeting peptides for molecular conjugation or engineering and uses thereof in cancer theranostics” (Chang Gung Memorial Hospital, priority 2020, dated 2023)
Where no end group is shown, it is not given here.

B1: F4P6-BsAb: bispecific antibody-like knob-and-hole heterodimer, anti-CD3 scFv plus F4P6-TR-CTP on both Fc C-termini, SEQ ID NO 12 and 14 (protein)
chain 1: MGGRRVRWEVYISRAGYVNRQIAWRRHHRSATMGWSLILLFLVAVATRVLSQVQLVQSGAEVKKPGASVKVSCKASGYTFTRYTMHWVRQAPGQGLEWIGYINPSRGYTNYNQKFKDKATLTTDKSISTAYMELSRLRSDDTAVYYCARYYDDHYTLDYWGQGTLVTVSSGGGGSGGGGSGGGGSEIVLTQSPATLSLSPGERATLSCSASSSVSYMNWYQQKPGQAPRRWIYDTSKLASGIPARFSGSGSGTSYTLTISSLEPEDFAVYYCQQWSSNPFTFGQGTKVEIKRSGGGGSGGGGSGGGGSTGTHTCPPCPAPELAGAPSVFLFPPKPKDTLMISRTPEVTCVVVDVSHEDPEVKFNWYVDGVEVHNAKTKPREEQYNSTYRVVSVLTVLHQDWLNGKEYKCKVSNKALPAPIEKTISKAKGQPREPQVCTLPPSREEMTKNQVSLSCAVKGFYPSDIAVEWESNGQPENNYKTTPPVLDSDGSFFLVSKLTVDKSRWQQGNVFSCSVMHEALHNHYTQKSLSLSPGKGGGGSGGGGSGGGGSRPFLPFLPY
chain 2: MGGRRVRWEVYISRAGYVNRQIAWRRHHRSATMGWSLILLFLVAVATRVLSTGTHTCPPCPAPELAGAPSVFLFPPKPKDTLMISRTPEVTCVVVDVSHEDPEVKFNWYVDGVEVHNAKTKPREEQYNSTYRVVSVLTVLHQDWLNGKEYKCKVSNKALPAPIEKTISKAKGQPREPQVYTLPPCREEMTKNQVSLWCLVKGFYPSDIAVEWESNGQPENNYKTTPPVLDSDGSFFLYSKLTVDKSRWQQGNVFSCSVMHEALHNHYTQKSLSLSPGKGGGGSGGGGSGGGGSRPFLPFLPY

Columns and labels:
[1] = target: peptide-binding domain of GRP78 (GRP78-PBD, amino acids 421-639) (Homo sapiens, UniProt P11021); test: Surface plasmon resonance, GRP78-PBD binding to chip-bound N-terminal biotin-labeled CTPs/TR-CTPs; conditions: N-terminal GGGGS extension, peptide immobilized on streptavidin chip; for Kd: read-out: Dissociation constant KD
Chain of peptide-binding domain of GRP78 (GRP78-PBD, amino acids 421-639) (P11021 421-639): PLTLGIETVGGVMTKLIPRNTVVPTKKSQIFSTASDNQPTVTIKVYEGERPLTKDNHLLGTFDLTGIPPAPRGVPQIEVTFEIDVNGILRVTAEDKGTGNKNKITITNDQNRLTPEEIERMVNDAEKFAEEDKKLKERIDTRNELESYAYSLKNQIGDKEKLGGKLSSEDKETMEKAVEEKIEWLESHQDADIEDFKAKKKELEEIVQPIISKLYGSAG
From the text: Biotin-labeled TR-CTPs and CTPs were synthesized (Biotools Co., Ltd, Taiwan) to evaluate kinetics of binding to GRP78 by surface plasmon resonance. TR-CTPs and CTPs were extended by five amino acids (GGGGS; SEQ ID NO: 9) at their N-termini. The N-termini were labeled with a single biotin molecule per TR-CTP/CTP through an aminohexanoic acid linkage.
Also biotin labeled were two negative control peptides, in which the L-Leu residues within the sequences of F4P6-TR-CTP and F4P13-TR-CTP were replaced with D-Leu residues (dF4P6 and dF4P13, respectively).
(§1) Streptavidin was immobilized to a sensor chip (CMS; GE Healthcare) having a matrix of carboxymethylated dextran covalently attached to a gold surface using a standard amine-coupling method according to established procedures (GE Healthcare). The biotin-labeled TR-CTPs were immobilized on the chip by flowing them over the chip at a flow rate of 5 μl/min using HBS-P+ (GE Healthcare) as the running buffer.
(§2) Sensor chips were regenerated by washing the chip surface for 30 s with glycine buffer (10 mM; pH 11.5). Chips were reused after two chip regeneration cycles followed by a 120 s wash with running buffer.

[2] = target: T1, GRP78-PBD (Homo sapiens, UniProt P11021); test: Surface plasmon resonance, GRP78-PBD binding to chip-bound C-terminal biotin-labeled CTPs/TR-CTPs; conditions: C-terminal GGGGSK extension, biotin on C-terminal lysine; for Kd: read-out: Dissociation constant KD
T1 sequence (P11021 421-639): as above
Protocol: as §1, §2
The P13-series peptides described above in Example 1 were also biotin labeled after extending them at their C-termini with the sequence GGGGSK (SEQ ID NO: 10). Biotin was conjugated to the C-terminal lysine residue using standard techniques. Binding affinities of GRP78-PBD for the sensor chip-bound peptides were determined as described above in Example 2.

[3] = tested on: TOV21G ovarian cancer target cells; test: PBMC-mediated cell killing, xCELLigence RTCA, TOV21G; type: cell-based; conditions: 12.5 nM antibody, effector-to-target ratio 10:1, 40 h incubation
Protocol: (§3) The ability of bispecific antibody-like construct F4P6-BsAb to induce cell killing by peripheral blood mononuclear cells (PBMC) was tested on TOV21G ovarian cancer target cells and N87 gastric cancer target cells.
(§4) Target cells were seeded at 2×10^4 cells per well of a 96-well electronic microtiter plate (“E-plate”; ACEA Biosciences, Inc.) and allowed to adhere for 2 h. PBMC effector cells, PBMC effector cells plus F4P6-BsAb, and PBMC effector cells plus Ctrl-BsAb that lacks the […] sequence were added to reach a final effector-to-target ratio of 10:1. The concentration of F4P6-BsAb and Ctrl-BsAb was 12.5 nM. Data was gathered and quantified using an xCELLigence Real-Time Cell Analysis system (“RTCA”; ACEA Biosciences, Inc.) as directed by the manufacturer.

[4] = tested on: N87 gastric cancer target cells; test: PBMC-mediated cell killing, xCELLigence RTCA, N87; type: cell-based; conditions: 12.5 nM antibody, effector-to-target ratio 10:1, 90 h incubation
Protocol: as §3, §4

[5] = target: T1, GRP78-PBD; test: Surface plasmon resonance, GRP78-PBD binding to F4P6-BsAb amine-coupled to sensor chip; conditions: F4P6-BsAb directly coupled to sensor chip by amine-coupling
Protocol: as §1, §2
Following expression and purification of F4P6-BsAb, the kinetics of GRP78-PDB binding to it was evaluated by surface plasmon resonance as described in Example 1 above, differing in that the F4P6-BsAb was directly coupled to the CMS sensor chip by amine-coupling.

Row | Molecule | Association rate Kon [1] | Dissociation rate Koff [1] | Association rate Kon [2] | Dissociation rate Koff [2] | Kd [2] | Kd [1] | PBMC mediated lysis of TOV21G cells [3] | PBMC mediated lysis of N87 cells [4] | Kd [5] | Koff value [5]
1 | RLLDTNRPFLFY [P13-CTP, reference compound] | 1.2 × 10^3 M^−1S^−1 | 3.4×10^−3 S^−1 | 9.7 × 10^2 M^−1S^−1 | 2.0 × 10^−3 S^−1 | 2700 nM | – | – | – | – | –
2 | RLLDTNRPFLPY [P6-CTP, reference compound] | 1.5 × 10^3 M^−1S^−1 | 3.0×10^−3 S^−1 | – | – | – | 1900 nM | – | – | – | –
3 | RPFLFPFLFY [F4P13-TR-CTP] | 7.9 × 10^2 M^−1S^−1 | 1.7×10^−3 S^−1 | 1.8 × 10^3 M^−1S^−1 | 1.2 × 10^−3 S^−1 | 660 nM | 2100 nM | – | – | – | –
4 | RPFLFPFLFYRPFLFPFLFY [F5P13-TR-CTP] | 1.9 × 10^3 M^−1S^−1 | 1.2×10^−3 S^−1 | – | – | – | 610 nM | – | – | – | –
5 | RPFLPFLPYRPFLPFLPY [F5P6-TR-CTP] | 8.9 × 10^2 M^−1S^−1 | 9.1×10^−4 S^−1 | – | – | – | 1000 nM | – | – | – | –
6 | RPFLPFLPY [F4P6-TR-CTP] | 2.3 × 10^3 M^−1S^−1 | 2.8×10^−3 S^−1 | – | – | – | 1200 nM | – | – | – | –
7 | B1 | – | – | – | – | – | – | 22% | 15% | 1100 nM | 9.4×10^−4 S^−1
